Source: PubChem BioAssay AID200 (DTP/NCI, 2004)
Values joined by “and” are separate entries in the source; they are usually repeats but may differ in a detail not shown here. Identical values can stand only once. Toxic doses and inconclusive results are not listed.

System: B6C3F1 mice, B16 melanoma ip, median survival T/C
Assay: NCI In Vivo Anticancer Drug Screen. Data for tumor model B16 Melanoma (intraperitoneal) in B6C3F1 mice
Conditions: endpoint: median survival time, higher = longer survival
Description: The antitumor activity of compounds was measured in mice bearing transplantable tumors. Survival or tumor size were measured and the results are expressed as the measurement made in the treated group (T) divided by the measurement made in the vehicle treated control group (C). The tumor model used in this assay is B16 Melanoma (intraperitoneal) in B6C3F1 mice

COc1cc2c(cc1O)C1CC(CC3CCCCN31)OC(=O)/C=C\c1ccc(O)c-2c1 (stereo not drawn)
T/C (dose: 15.0 mg/kg/injection, schedule: Q01DX009 (ip), vehicle: saline): 101 % of control
T/C (dose: 30.0 mg/kg/injection, schedule: Q01DX009 (ip), vehicle: saline): 104 % of control
T/C (dose: 60.0 mg/kg/injection, schedule: Q01DX009 (ip), vehicle: saline): 114 % of control
T/C (dose: 120.0 mg/kg/injection, schedule: Q01DX009 (ip), vehicle: saline): 102 % of control

O=[N+]([O-])c1ccc(Sc2ccncn2)c([N+](=O)[O-])c1
T/C (dose: 12.5 mg/kg/injection, schedule: Q01DX009 (ip), vehicle: saline with Tween-80): 92 % of control
T/C (dose: 25.0 mg/kg/injection, schedule: Q01DX009 (ip), vehicle: saline with Tween-80): 105 % of control
T/C (dose: 50.0 mg/kg/injection, schedule: Q01DX009 (ip), vehicle: saline with Tween-80): 92 % of control
T/C (dose: 100.0 mg/kg/injection, schedule: Q01DX009 (ip), vehicle: saline with Tween-80): 101 % of control

COc1cccc2c1C(=O)c1c(O)c3c(c(O)c1C2=O)C[C@](O)(C(=O)CO)CC3OC1CC(N)C(OC2CCCCO2)C(C)O1 (stereo partly drawn)
T/C (dose: 1.5 mg/kg/injection, schedule: Q01DX009 (ip), vehicle: water): 382 % of control
T/C (dose: 1.56 mg/kg/injection, schedule: Q01DX001 (ip), vehicle: water): 172 % of control
T/C (dose: 3.12 mg/kg/injection, schedule: Q01DX001 (ip), vehicle: water): 206 % of control and 218 % of control
T/C (dose: 6.25 mg/kg/injection, schedule: Q01DX001 (ip), vehicle: water): 222 % of control and 317 % of control
T/C (dose: 12.5 mg/kg/injection, schedule: Q01DX001 (ip), vehicle: water): 229 % of control and 264 % of control

CC1=C(CC/C(C)=C/CCC2=CCC(C3=CC(=O)OC3O)OC2O)C(C)(C)CCC1 (stereo not drawn)
T/C (dose: 3.0 mg/kg/injection, schedule: Q01DX009 (ip), vehicle: Klucel (hydroxypropylcellulose) (HPC)): 90 % of control
T/C (dose: 6.0 mg/kg/injection, schedule: Q01DX009 (ip), vehicle: Klucel (hydroxypropylcellulose) (HPC)): 90 % of control

Nc1ccc(Cn2ccc3c4c(N)nc(N)nc4ccc32)cc1
T/C (dose: 1.25 mg/kg/injection, schedule: Q01DX009 (ip), vehicle: saline with Tween-80): 95 % of control and 100 % of control
T/C (dose: 2.5 mg/kg/injection, schedule: Q01DX009 (ip), vehicle: saline with Tween-80): 110 % of control and 99 % of control
T/C (dose: 5.0 mg/kg/injection, schedule: Q01DX009 (ip), vehicle: saline with Tween-80): 99 % of control and 105 % of control
T/C (dose: 10.0 mg/kg/injection, schedule: Q01DX009 (ip), vehicle: saline with Tween-80): 111 % of control and 119 % of control

CCCCc1ccc(-n2c(C)c(COC(=O)NC)c(COC(=O)NC)c2C)cc1
T/C (dose: 6.25 mg/kg/injection, schedule: Q01DX009 (ip), vehicle: Klucel (hydroxypropylcellulose) (HPC)): 170 % of control
T/C (dose: 12.5 mg/kg/injection, schedule: Q01DX009 (ip), vehicle: Klucel (hydroxypropylcellulose) (HPC)): 174 % of control
T/C (dose: 25.0 mg/kg/injection, schedule: Q01DX009 (ip), vehicle: Klucel (hydroxypropylcellulose) (HPC)): 169 % of control

CCOC(=O)N1CCN(CCCCCCOc2ccc(C3CCCCC3)cc2)CC1
T/C (dose: 1.56 mg/kg/injection, schedule: Q01DX009 (ip), vehicle: saline): 110 % of control
T/C (dose: 3.13 mg/kg/injection, schedule: Q01DX009 (ip), vehicle: saline): 93 % of control
T/C (dose: 6.25 mg/kg/injection, schedule: Q01DX009 (ip), vehicle: saline): 101 % of control
T/C (dose: 12.5 mg/kg/injection, schedule: Q01DX009 (ip), vehicle: saline): 97 % of control and 105 % of control

CC12C(=O)C=CCC1=CCC1C2CCC2(O)C(=O)OC3(C)C4CC5(C)C(COC16OC23C5C6=O)C(=O)O4 (stereo not drawn)
T/C (dose: 100.0 mg/kg/injection, schedule: Q01DX009 (ip), vehicle: Klucel (hydroxypropylcellulose) (HPC)): 93 % of control
T/C (dose: 200.0 mg/kg/injection, schedule: Q01DX009 (ip), vehicle: Klucel (hydroxypropylcellulose) (HPC)): 98 % of control

COc1cc(NCc2ccc3nc(N)nc(N)c3c2C)cc(OC)c1OC
T/C (dose: 2.5 mg/kg/injection, schedule: Q01DX009 (ip), vehicle: sodium bicarbonate): 110 % of control
T/C (dose: 5.0 mg/kg/injection, schedule: Q01DX009 (ip), vehicle: sodium bicarbonate): 118 % of control
T/C (dose: 6.25 mg/kg/injection, schedule: Q01DX009 (ip), vehicle: water): 108 % of control
T/C (dose: 10.0 mg/kg/injection, schedule: Q01DX009 (ip), vehicle: sodium bicarbonate): 123 % of control
T/C (dose: 12.5 mg/kg/injection, schedule: Q01DX009 (ip), vehicle: water): 114 % of control
T/C (dose: 25.0 mg/kg/injection, schedule: Q01DX009 (ip), vehicle: water): 121 % of control

Cc1cn(C2CC(F)C(CO)O2)c(=O)[nH]c1=O (stereo not drawn)
T/C (dose: 125.0 mg/kg/injection, schedule: Q01DX009 (ip), vehicle: suspension in saline): 117 % of control
T/C (dose: 250.0 mg/kg/injection, schedule: Q01DX009 (ip), vehicle: suspension in saline): 116 % of control

COc1cc(C2c3cc4c(cc3C(OC3CCCCO3)C3COC(=O)C23)OCO4)cc(OC)c1OC (stereo not drawn)
T/C (dose: 1.56 mg/kg/injection, schedule: Q01DX009 (ip), vehicle: Klucel (hydroxypropylcellulose) (HPC)): 93 % of control
T/C (dose: 3.12 mg/kg/injection, schedule: Q01DX009 (ip), vehicle: Klucel (hydroxypropylcellulose) (HPC)): 98 % of control
